In PMC8591608, “DNDI-6148: A Novel Benzoxaborole Preclinical Candidate for the Treatment of Visceral Leishmaniasis” (Journal of Medicinal Chemistry, 2021):
pEC50: −log10 of the molar value. Read-outs that look alike come from different tables or passages of the source.

Assays:
[1] = Hamster oral pharmacokinetic study; assay type: in vivo, golden Syrian hamsters; conditions: female, golden Syrian, plasma
Method: […] The K2-EDTA anticoagulant was added to blood samples collected from 0.25 to 36 h, which were processed to plasma and stabilized with phosphoric acid (1% final) before analysis by LC-MS/MS. PK parameters were calculated using WinNonlin software (version 6.3).

[2] = system: L. donovani; assay: Intramacrophage L. donovani assay; assay type: cell-based; conditions: for pEC50: Leishmania donovani
Method: (§1) L. infantum (MHOM/MA/67/ITMAP263) and L. donovani (MHOM/ET/67/L82) were maintained in the golden (Syrian) hamster (Mesocricetus auratus). Ex vivo amastigotes were collected from the spleen of an infected donor hamster using two centrifugation purification steps: 230g for 10 min, keeping the supernatant layer, and 4100g for 30 min, keeping the pellet. The spleen parasite burden was assessed using the Stauber technique.[25] For in vitro assays, the inoculum was prepared in RPMI-1640 medium, supplemented with 200 mM L-glutamine, 16.5 mM NaHCO3, and 5% inactivated fetal calf serum. For the in vivo model, an infection inoculum containing 2 × 10^7 amastigotes/100 μL was prepared in phosphate-buffered saline (PBS).
(§2) The assay was performed in sterile 96-well microtiter plates, each well containing 10 μL of the compound dilution and 190 μL of the PMM/amastigote inoculum (3 × 10^4 cells/4.5 × 10^5 parasites per well). Parasite multiplication was compared to untreated infected controls (100% growth) and uninfected controls (0% growth). After five-day incubation, total parasite burdens were microscopically assessed after staining the cells with a 10% Giemsa solution. The results were expressed as a percentage reduction in parasite burden compared to untreated control wells. EC50 values were determined using an extended dose range (2-fold compound dilutions, 8-point concentration curve). Miltefosine was used as the reference drug.[26] For selected compounds, this assay format was also run using the L. donovani inoculum.

[3] = Liver microsome stability, hamster; assay type: in vitro ADME; conditions: golden (Syrian), hamster liver microsomes
Method: (§3) Tests were performed by WuXi AppTec, China. Test compounds (at 1 μM) or positive controls (testosterone, propafenone, and diclofenac) were incubated at 37 °C with liver microsomes from Balb/c mouse, golden (Syrian) hamster, Sprague-Dawley rat, Beagle dog, or human in the presence of a NADPH regenerating system and phosphate buffer (100 mM, pH 7.4) at 0.4 or 0.8 mg/mL microsomal protein. The samples were removed at time intervals from 0 to 60, 90, or 120 min and immediately mixed with cold methanol supplemented or not with acid (3% formic acid) and centrifuged prior to analysis by LC-MS/MS using tolbutamide or propranolol as internal standards.

[4] = Liver microsome stability, human; assay type: in vitro ADME; conditions: human liver microsomes
Method: as §3

[5] = system: L. infantum; assay: Intramacrophage L. infantum assay; assay type: cell-based; conditions: Leishmania infantum
Method: as §1, §2

[6] = system: L. infantum; assay: L. infantum hamster model of VL; assay type: in vivo
Method: as §1
Female golden hamsters for the in vivo model of visceral leishmaniasis were purchased from Janvier, France (body weight 80–100 g). This study using laboratory rodents was carried out in strict accordance with all mandatory guidelines (EU directives, including the Revised Directive 2010/63/EU on the protection of Animals used for Scientific Purposes that came into force on 01/01/2013, and the declaration of Helsinki in its latest version) and was approved by the ethical committee of the University of Antwerp, Belgium (UA-ECD 2011-74). Female golden hamsters for the pharmacokinetic study were purchased from Vital River, Beijing, China. This study was conducted following institutional review and in accordance with institutional and national guidelines at WuXi AppTec (the Institutional Animal Care and Use Committee (IACUC)). Balb/c mice for the in vivo model of visceral leishmaniasis (LSHTM) were purchased from Charles River, U.K., and related studies were conducted under license PPL 70/8427 from the U.K. Home Office.
Female golden hamsters were randomly allocated to experimental groups of six animals each, based on body weight. At the start of the experiment (Day 0), each animal was infected with L. infantum or L. donovani inoculum, delivered by intracardial injection. Six hamsters were assigned to the vehicle-treated, infected control group. Six hamsters were assigned per group (1 group/compound) for the evaluation of compound and miltefosine. […] At Day 35 (10 days after the final oral dose), all animals were euthanized and autopsies were conducted. The study evaluated the following parameters. • 1. Adverse effects: all animals were observed daily for the occurrence/presence of adverse effects. • 2. Body weight: all animals were weighed twice per week to monitor general health. • 3. Parasite burden: amastigote burdens in each target organ (liver, spleen, and bone marrow) were determined at Day 35. The organs of individual animals were weighed (except for bone marrow). Impression smears were stained with Giemsa for microscopic examination of the total amastigote burden, defined as the mean number of amastigotes per cell multiplied by the number of cells counted (minimum 500 nuclei); the results were expressed as a percentage reduction in amastigote burden compared to vehicle-treated, infected control animals.

[7] = MRC5 cytotoxicity assay; assay type: cell-based; conditions: human, MRC5SV2 cells (human embryonic lung fibroblasts), geometric mean of at least two independent tests
Method: (§4) Primary peritoneal mouse macrophages (PMM) were collected two days after peritoneal stimulation with a 2% potato starch suspension. MRC5SV2 cells (diploid human embryonic lung fibroblasts) were cultured in minimal essential medium (MEM) containing Earle’s salts, supplemented with L-glutamine, NaHCO3, and 5% inactivated fetal calf serum. All cultures and assays were conducted at 37 °C under an atmosphere of 5% CO2.
(§5) Assays were performed in sterile 96-well microtiter plates, each well containing 10 μL of the compound dilution and 190 μL of MRC5SV2 or PMM inoculum (3 × 10^4 cells/mL). Cell growth was compared to untreated controls (100% growth) and assay-media controls (0% growth). After three-day incubation, cell viability was assessed fluorometrically by adding resazurin (50 μL/well of a stock solution in phosphate buffer (50 μg/mL)), incubating for 4 h and measuring fluorescence (λex 550 nm, λem 590 nm). The results were expressed as a percentage reduction in cell growth compared to untreated control wells. […] Tamoxifen was included as the reference drug.

[8] = PMM cytotoxicity assay; assay type: cell-based; conditions: mouse, primary peritoneal mouse macrophages (PMM); for CC50 at 72 h: Table 4; for CC50 at 72 h / CC50 at 3 days: geometric mean of at least two independent tests
Method: as §4, §5

[9] = Table 6, geometric mean of at least two independent tests
[10] = pH 7.4, Table 4, read-out: HamLM Clint
[11] = pH 7.4, Table 4, read-out: HLM Clint
[12] = Table 4, geometric mean of at least two independent tests, read-out: intramacrophage L. infantum EC50
[13] = single p.o. dose 50 mg/kg, read-out: AUC0–24 after single p.o. dose of 50 mg/kg
[14] = Table 2, geometric mean of at least three independent assays
[15] = pH 7.4, Table 5, read-out: HamLM Clint
[16] = pH 7.4, Table 5, read-out: HLM Clint
[17] = Table 5, geometric mean of at least two independent tests, read-out: intramacrophage L. infantum amastigote EC50

SMILES	pEC50 [2, 9]	microsomal CLint at 2 h, 1 µM [3, 10] [µL/min/mg]	microsomal CLint at 1 μM [4, 11] [µL/min/mg]	pEC50 [5, 12]	reduction in parasite burden, bone marrow, 5 days ([6]; 25 mg/kg BID p.o. for 5 days) [%]	reduction in parasite burden, liver, 5 days ([6]; 25 mg/kg BID p.o. for 5 days) [%]	reduction in parasite burden, spleen, 5 days ([6]; 25 mg/kg BID p.o. for 5 days) [%]	reduction in parasite burden, bone marrow, 5 days ([6]; 50 mg/kg BID p.o. for 5 days) [%]	reduction in parasite burden, liver, 5 days ([6]; 50 mg/kg BID p.o. for 5 days) [%]	reduction in parasite burden, spleen, 5 days ([6]; 50 mg/kg BID p.o. for 5 days) [%]	CC50 at 72 h ([7]; Table 4) [µM]	CC50 at 72 h [8] [µM]	CC50 at 3 days ([8]; Table 6) [µM]	AUC(0-t) [1, 13] [ng·h/mL]	CC50 at 3 days ([7]; Table 4) [µM]	microsomal CLint at 2 h, 1 µM [3, 15] [µL/min/mg]	pEC50 [5, 17]	CC50 at 3 days ([8]; Table 5) [µM]	further results
Cc1c(C(=O)Nc2ccc3c(c2)B(O)OC3)cnn1-c1ccccn1 [Compound 16, N-(1-Hydroxy-1,3-dihydrobenzo[c][1,2]oxaborol-6-yl)-5-methyl-1-(pyridin-2-yl)-1H-pyrazole-4-carboxamide]	5.92	57	< 11.9	5.51	72.2	87.8	87.7	95.1	99.6	98.5	61	59	> 64						AUC(0-t) ([1]; study run using a single 25 mg/kg p.o. dose, read-out: AUC0–24 after single p.o. dose): 7900 ng·h/mL; CC50 at 3 days ([7]; Table 6): 61.1 µM
O=C(Nc1ccc2c(c1)B(O)OC2)c1cn(CC(F)(F)F)nc1C(F)(F)F [Compound 5, N-(1-Hydroxy-1,3-dihydrobenzo[c][1,2]oxaborol-6-yl)-1-(2,2,2-trifluoroethyl)-3-(trifluoromethyl)-1H-pyrazole-4-carboxamide]	6.00	41	< 11.9	5.80	77.0	89.7	90.0	98.0	99.7	99.2		50	53.8	21000	> 64				
CCCCCCCCCCCCCCCCOP(=O)([O-])OCC[N+](C)(C)C [miltefosine, reference compound]												33			> 64				pEC50 [2, 14]: 5.00; pEC50 ([5]; Table 2, geometric mean of at least three independent assays, read-out: intramacrophage L. infantum EC50): 5.00; EC50 at 3 days [8, 14]: 33 µM
O=C(Nc1ccc2c(c1)B(O)OC2)c1nnc(-c2ccccn2)o1 [Compound 31, N-(1-Hydroxy-1,3-dihydrobenzo[c][1,2]oxaborol-6-yl)-5-(pyridin-2-yl)-1,3,4-oxadiazole-2-carboxamide]	5.03				55.0	67.3	69.0	99.7	99.4	99.4				21000		12	5.70	> 64	fold weaker against L. donovani compared with L. infantum potency ([2]; intramacrophage potency): about 5 fold; microsomal CLint at 2 h, 1 µM [4, 16]: 19 µL/min/mg; CC50 at 3 days ([7]; Table 5): > 64 µM
O=C(Nc1ccc2c(c1)B(O)OC2)c1cn(-c2ccccn2)nn1 [Compound 22, N-(1-Hydroxy-1,3-dihydrobenzo[c][1,2]oxaborol-6-yl)-1-(pyridin-2-yl)-1H-1,2,3-triazole-4-carboxamide]																18	5.77	> 64	microsomal CLint at 1 μM [4, 16]: < 11.9 µL/min/mg; CC50 at 72 h ([7]; Table 5): 44.8 µM
O=C(Nc1ccc2c(c1)B(O)OC2)c1cc(-c2ccccn2)n[nH]1 [Compound 19, N-(1-Hydroxy-1,3-dihydrobenzo[c][1,2]oxaborol-6-yl)-3-(pyridin-2-yl)-1H-pyrazole-5-carboxamide]		253	< 11.9	6.30							4	32							
